Measured values: patent US10208037B2, “Toll-like receptor-7 and -8 modulatory 1H imidazoquinoline derived compounds” (The University of Kansas, priority 2011, dated 2019)

Assays:
Assay type in all cases: cell-based
TLR7 [1] = target: T1, TLR7 (Homo sapiens, UniProt Q9NYK1); experiment: TLR7 reporter gene assay, antagonism (gardiquimod as agonist)
T1 construct: expressed in transfected cells; host or cells: HEK293 (HEK-Blue-7 cells)
T1 sequence (Q9NYK1 27-1049): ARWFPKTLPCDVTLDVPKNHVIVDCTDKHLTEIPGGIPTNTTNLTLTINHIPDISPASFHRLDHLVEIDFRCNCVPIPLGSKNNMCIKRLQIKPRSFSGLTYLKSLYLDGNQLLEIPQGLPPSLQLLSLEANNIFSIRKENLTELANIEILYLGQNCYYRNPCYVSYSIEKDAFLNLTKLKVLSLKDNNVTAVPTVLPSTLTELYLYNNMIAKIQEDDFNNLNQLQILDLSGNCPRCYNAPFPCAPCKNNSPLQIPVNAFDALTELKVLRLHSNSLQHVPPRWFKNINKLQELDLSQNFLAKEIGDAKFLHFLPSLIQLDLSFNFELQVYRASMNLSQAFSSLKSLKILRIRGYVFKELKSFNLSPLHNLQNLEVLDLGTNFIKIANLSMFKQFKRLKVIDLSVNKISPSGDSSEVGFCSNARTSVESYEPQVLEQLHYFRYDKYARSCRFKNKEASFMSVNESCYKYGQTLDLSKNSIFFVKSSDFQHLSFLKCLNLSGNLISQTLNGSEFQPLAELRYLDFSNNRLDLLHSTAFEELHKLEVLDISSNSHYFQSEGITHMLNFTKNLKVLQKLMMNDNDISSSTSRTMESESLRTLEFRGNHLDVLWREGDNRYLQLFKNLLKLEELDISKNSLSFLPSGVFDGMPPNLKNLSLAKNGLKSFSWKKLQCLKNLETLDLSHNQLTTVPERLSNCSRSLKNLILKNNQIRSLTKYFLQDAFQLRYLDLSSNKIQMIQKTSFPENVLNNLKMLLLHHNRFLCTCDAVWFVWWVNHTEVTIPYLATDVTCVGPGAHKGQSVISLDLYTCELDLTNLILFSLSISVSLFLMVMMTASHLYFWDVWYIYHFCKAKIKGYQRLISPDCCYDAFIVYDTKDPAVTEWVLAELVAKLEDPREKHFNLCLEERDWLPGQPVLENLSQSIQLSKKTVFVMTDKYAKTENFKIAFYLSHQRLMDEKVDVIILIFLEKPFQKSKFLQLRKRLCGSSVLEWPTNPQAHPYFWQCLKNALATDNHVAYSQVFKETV
Text: (§1) The induction of NF-κB was quantified using HEK-Blue-3, HEK-Blue-7 and HEK-Blue-8 cells as previously described by us.^8,24,51 HEK293 cells were stably transfected with human TLR3 (or human TLR7 or human TLR8), MD2, and secreted alkaline phosphatase (sAP), and were maintained in HEK-Blue™ Selection medium containing zeocin and normocin. Stable expression of secreted alkaline phosphatase (sAP) under control of NF-κB/AP-1 promoters is inducible by the TLR3 (or TLR7 or TLR8) agonists, and extracellular sAP in the supernatant is proportional to NF-κB induction. HEK-Blue cells were incubated at a density of ˜10^5 cells/ml in a volume of 80 μl/well, in 384-well, flat-bottomed, cell culture-treated microtiter plates until confluency was achieved, and subsequently graded concentrations of stimuli. sAP was assayed spectrophotometrically using an alkaline phosphatase-specific chromogen (present in HEK-detection medium as supplied by the vendor) at 620 nm.
(§2) Antagonism assays were done as described by us earlier^73 using the following agonists at a constant concentration: TLR3 Poly(I:C) (10 ng/mL); TLR7: gardiquimod (1 μg/mL); TLR8: CL075 (1 μg/mL) mixed with graded concentrations of the test compounds.

TLR8 [2] = target: T2, TLR8 (Homo sapiens, UniProt Q9NR97); experiment: TLR8 reporter gene assay, antagonism (CL075 as agonist); conditions: for IC50: agonist CL075 1 μg/mL, ND = not detected
T2 construct: expressed in transfected cells; host or cells: HEK293 (HEK-Blue-8 cells)
T2 sequence (Q9NR97 27-1041): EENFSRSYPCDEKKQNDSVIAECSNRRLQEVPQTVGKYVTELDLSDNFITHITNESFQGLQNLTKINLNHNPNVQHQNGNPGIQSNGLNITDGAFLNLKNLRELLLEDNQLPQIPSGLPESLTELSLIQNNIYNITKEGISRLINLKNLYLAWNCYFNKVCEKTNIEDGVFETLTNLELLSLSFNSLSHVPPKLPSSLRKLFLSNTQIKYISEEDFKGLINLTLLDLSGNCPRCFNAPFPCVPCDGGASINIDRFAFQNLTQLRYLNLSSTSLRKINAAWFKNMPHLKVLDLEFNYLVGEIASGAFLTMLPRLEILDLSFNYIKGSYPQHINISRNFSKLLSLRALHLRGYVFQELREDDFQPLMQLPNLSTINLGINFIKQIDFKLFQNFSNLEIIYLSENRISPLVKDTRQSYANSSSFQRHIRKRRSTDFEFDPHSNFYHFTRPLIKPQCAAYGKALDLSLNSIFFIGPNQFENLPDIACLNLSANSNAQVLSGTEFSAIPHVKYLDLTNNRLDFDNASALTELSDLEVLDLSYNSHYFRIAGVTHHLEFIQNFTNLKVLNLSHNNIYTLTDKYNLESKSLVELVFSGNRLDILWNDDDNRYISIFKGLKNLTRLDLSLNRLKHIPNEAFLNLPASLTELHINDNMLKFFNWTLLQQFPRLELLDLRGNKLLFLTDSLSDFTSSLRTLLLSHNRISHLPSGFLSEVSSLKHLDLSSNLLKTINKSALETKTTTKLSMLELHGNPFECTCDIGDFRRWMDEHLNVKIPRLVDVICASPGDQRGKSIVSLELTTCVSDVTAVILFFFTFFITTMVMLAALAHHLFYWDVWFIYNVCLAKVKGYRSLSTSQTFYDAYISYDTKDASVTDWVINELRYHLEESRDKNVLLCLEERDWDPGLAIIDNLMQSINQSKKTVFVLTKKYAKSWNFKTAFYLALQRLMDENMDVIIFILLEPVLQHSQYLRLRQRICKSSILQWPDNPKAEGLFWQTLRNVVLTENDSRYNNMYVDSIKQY
Text: as §1, §2

[3] = test system: TLR7 and TLR8-induced cytokine and chemokine release; experiment: Inhibition of TLR7- and TLR8-mediated cytokine and chemokine production in human PBMCs; conditions: hPBMCs
Protocol: FIGS. 22A-[…] illustrate inhibition of TLR7-mediated (FIGS. 22A-22D) and TLR8-mediated (FIGS. 22E-[…]) proinflammatory cytokine production in human peripheral blood mononuclear cells by chloroquine or 47a. Proinflammatory cytokines were assayed by cytokine bead array methods after incubation of hPBMCs with graded concentrations of the test compound for 12 h in the presence of 10 μg/ml of either CL075 (TLR8 agonist) or gardiquimod (TLR7 agonist). FIGS. 23A-23D illustrate inhibition of TLR7-mediated (FIGS. 23A-23B) and TLR8-mediated (FIGS. 23C-3D) chemokine production in human peripheral blood mononuclear cells by chloroquine or 47a. Chemokines were assayed by cytokine bead array methods after incubation of hPBMCs with graded concentrations of the test compound for 12 h in the presence of 10 μg/ml of either CL075 (TLR8 agonist) or gardiquimod (TLR7 agonist). Aliquots (10^6 cells in 100 μL) of hPBMCs isolated from blood obtained from healthy human donors after informed consent by conventional Ficoll-Hypaque gradient centrifugation were stimulated for 12 h with graded concentrations of test compounds. The supernatant was isolated by centrifugation, diluted 1:20, and cytokines and chemokines were assayed in triplicate using analyte-specific cytokine/chemokine bead array assays as reported by us previously.^74

TLR8 [4] = target: T2, TLR8; experiment: TLR8 reporter gene assay (NF-κB induction, HEK-Blue-8 cells), agonism
Text: (§3) NF-κB induction: The induction of NF-κB was quantified using HEK-Blue-7 cells and HEK-Blue-8 cells as previously described by us.^8,24 HEK293 cells were stably transfected with human TLR7 (or human TLR8), MD2, and secreted alkaline phosphatase (sAP), and were maintained in HEK-Blue™ Selection medium containing zeocin and normocin. Stable expression of secreted alkaline phosphatase (sAP) under control of NF-κB/AP-1 promoters is inducible by the TLR7 (or TLR8) agonists, and extracellular sAP in the supernatant is proportional to NF-κB induction. HEK-Blue cells were incubated at a density of […] in a volume of 80 μL/well, in 384-well, flat-bottomed, cell culture-treated microtiter plates until confluency was achieved, and subsequently graded concentrations of stimuli. sAP was assayed spectrophotometrically using an alkaline phosphatase-specific chromogen (present in HEK-detection medium as supplied by the vendor) at 620 nm.
as §1

TLR7 [5] = target: T1, TLR7; experiment: TLR7 reporter gene assay (NF-κB induction, HEK-Blue-7 cells), agonism; conditions: Table 1; ND = not detected; read-out: TLR7 Agonism
Text: as §3, §1

Compound | TLR7 antagonistic activity (in words) (TLR7 [1]) | TLR8 antagonistic activity (in words) (TLR8 [2]) | IC50 (TLR8 [2]) | Inhibition of TNF-α and IL-1β production (in words) [3] | TLR8-agonistic activity (in words) (TLR8 [4]) | EC50 (TLR7 [5]) | IC50 (TLR7 [1]; agonist gardiquimod 1 μg/mL, ND = not detected)
Nc1nc2ccccc2c2c1nc(CCCCc1nc3c(N)nc4ccccc4c3n1Cc1ccccc1)n2Cc1ccccc1 [Compound 47b, 2,2′-(butane-1,4-diyl)bis(1-benzyl-1H-imidazo[4,5-c]quinolin-4-amine)] | potent antagonistic activity | potent antagonistic activity | 15.6 µM |  |  |  | 
CCN(CC)CCCC(C)Nc1ccnc2cc(Cl)ccc12 (stereo not shown) [Chloroquine, reference compound] |  |  |  | feeble inhibitor |  |  | 
CCCCc1nc2c(N)nc3ccc(NC(=O)CCCCCCCCCCC(=O)Nc4ccc5nc(N)c6nc(CCCC)n(Cc7ccc(CN)cc7)c6c5c4)cc3c2n1Cc1ccc(CN)cc1 [Compound 55c, N^1,N^12-bis(4-amino-1-(4-(aminomethyl)benzyl)-2-butyl-1H-imidazo[4,5-c]quinolin-8-yl) dodecanediamide] |  |  |  |  | dual TLR7/TLR8 activity | 5.4 µM | 
Nc1nc2ccccc2c2c1nc(CCCCCCCCCCc1nc3c(N)nc4ccccc4c3n1Cc1ccccc1)n2Cc1ccccc1 [Compound 49b, 2,2′-(decane-1,10-diyl)bis(1-benzyl-1H-imidazo[4,5-c]quinolin-4-amine)] | potent antagonistic activity | potent antagonistic activity | 4.65 µM |  |  |  | 17.9 µM
Nc1nc2ccccc2c2c1nc(CCCCCCc1nc3c(N)nc4ccccc4c3n1Cc1ccccc1)n2Cc1ccccc1 [Compound 49a, 2,2′-(hexane-1,6-diyl)bis(1-benzyl-1H-imidazo[4,5-c]quinolin-4-amine)] | potent antagonistic activity | potent antagonistic activity | 10.9 µM |  |  |  | 
